Laboratory results published in article PMC7077228 (Viruses, 2020).
Structures can show the parent of a compound that is named as a salt. Where two headings read alike, the source gives them in different places.

Assays:
A549 cells = assay: MTT cytotoxicity assay; conditions: for CC50: MTT, 24 h of compound treatment
[1] = system: H5N1 IAV (A/Duck/Guangdong/99); assay: microbe, parasite or virus in culture; assay type: cell-based, influenza A virus
H5N1 IAV [2] = assay type: cell-based, influenza A virus
[3] = system: H9N2 IAV (A/Chicken/Guangdong/16/1996); assay: microbe, parasite or virus in culture; assay type: cell-based; conditions: Influenza A virus, H9N2, A549, in Gallus gallus
[4] = system: PR8 (H1N1) IAV (A/Puerto Rico/8/34); assay: microbe, parasite or virus in culture; assay type: cell-based; conditions: Influenza A virus, A549
[5] = system: H3N2 IAV (A/Guangdong/Dongguan/1100/2006); assay: microbe, parasite or virus in culture; assay type: cell-based; conditions: Influenza A virus, H3N2, A549
[6] = system: H5N1 IAV HA-induced hemolysis; assay: microbe, parasite or virus in culture; assay type: cell-based; conditions: Influenza A virus, H5N1, in Gallus gallus, pH 5.2, read-out: IC50 hemolysis inhibition
[7] = system: IAV (H1N1, H5N1, H9N2 and H3N2); assay: microbe, parasite or virus in culture; assay type: cell-based, influenza A virus
[8] = system: A/Duck/Guangdong/99(H5N1) HA; assay type: cell-based, influenza A virus
[9] = molecular target: Recombinant influenza HA protein from A/Vietnam/1203/2004 (H5N1) (Influenza A virus (A/Vietnam/1203/2004(H5N1)), UniProt Q5EP31); assay: biochemical; assay type: binding
[10] = molecular target: FKBP12 (FK506 binding protein 1A, 12 kDa) (Homo sapiens, UniProt P62942)
H5N1 IAV [11] = assay type: cell-based, influenza A virus; remark: listed apart in the source
H5N1 IAV [12] = assay type: cell-based, influenza A virus; remark: listed apart in the source
H5N1 IAV [13] = assay type: cell-based, influenza A virus; remark: listed apart in the source

FKBP12 (FK506 binding protein 1A, 12 kDa), sequence (P62942 whole entry): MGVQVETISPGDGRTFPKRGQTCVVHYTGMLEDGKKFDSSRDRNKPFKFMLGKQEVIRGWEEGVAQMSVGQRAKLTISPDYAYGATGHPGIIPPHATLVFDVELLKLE

With `CC1(C)CC[C@]2(C(=O)O)CC[C@]3(C)C(=CC[C@@H]4[C@@]5(C)CC[C@H](O)C(C)(C)[C@@H]5CC[C@]43C)[C@@H]2C1` [OA-0, oleanolic acid] the CC50 (A549 cells) was 67.4 ± 4.8 µM, the CC50 (A549 cells; listed as oleanolic acid) was ≥ 31.1 µM and the EC50 [1] was 14.2 ± 1.9 µM. The “SI (selectivity index), ratio of CC50 to EC50” value [1] was 4.7 and the EC50 ([1]; Influenza A virus, H5N1, A549) was ≤ 14.2 µM.

`CNC(=O)[C@]12CCC(C)(C)C[C@H]1C1=CC[C@@H]3[C@@]4(C)CC[C@H](O[C@@H]5O[C@H](CO)[C@@H](O[C@@H]6O[C@@H](C)[C@H](O)[C@@H](O)[C@H]6O)[C@H](O)[C@H]5O[C@@H]5O[C@@H](C)[C@H](O)[C@@H](O)[C@H]5O)C(C)(C)[C@@H]4CC[C@@]3(C)[C@]1(C)CC2` [OA-10] was tested, and the “effect on IAV infection after co-incubation at 4 °C (virus binding)” value (H5N1 IAV [2]) was “did not affect IAV infection”, the EC50 [3] was 15.3 ± 2.5 µM and the “cytotoxicity at concentrations ≤ 80 µM” value (A549 cells; after 24, 48 or 72 h of treatment) was “No obvious cytotoxicity”. The EC50 [4] was 6.7 ± 1.4 µM, the “SI (selectivity index), ratio of CC50 to EC50” value [1] was >45 and the EC50 ([1]; Influenza A virus, H5N1, A549) was 14 ± 2.3 µM. For the same molecule, the EC50 [5] was 19.6 ± 3.7 µM, the IC50 [6] was 26 µM and the “progeny virus titer on PR8, H9N2 and H3N2 infection” value [7] was “reduced progeny virus titer”. The EC50 ([7]; Influenza A virus, H1N1|H3N2|H5N1|H9N2, A549, read-out: EC50 range across IAV subtypes) was 6.7 to 19.6 µM, the “inhibition of HA adsorption to chicken RBCs” value [8] was “did not inhibit HA adsorption to chicken RBCs” and the “inhibition of H5N1 virus adsorption to chicken RBCs” value ([8]; concentrations ≥40 µM) was “partially blocked”. For the same molecule, the Kd [9] was 2.98 pM, the “interaction with negative control protein” value [10] was “did not interact” and the “effect of combination on progeny virus titer and NP production” value (H5N1 IAV [11]) was “synergistic effect”. The “progeny virus yield and NP protein expression, co-treatment” value (H5N1 IAV [11]) was “mild but significant reduction”, the “progeny virus yield and viral NP production, pre-treatment” value (H5N1 IAV [11]) was “did not reduce progeny virus yield and viral NP production” and the “progeny virus yield, post-treatment” value (H5N1 IAV [11]) was “one log reduction”. The “H5N1 IAV NP RNA levels” value (H5N1 IAV [12]) was “significantly inhibited” and the “reduction in progeny virus production” value (H5N1 IAV [12]) was 1.8 log.

For `CCOC(=O)c1c(CSc2ccccc2)n(C)c2cc(Br)c(O)c(CN(C)C)c12` [arbidol, Arbidol hydrochloride, reference compound], the IC50 [6] was 51 µM.

With `CCC(CC)[C@H](NC(C)=O)[C@@H]1[C@H](O)[C@@H](C(=O)O)C[C@H]1N=C(N)N` [peramivir, Peramivir, reference compound] the “progeny virus yield and NP protein expression, co-treatment” value (H5N1 IAV [11]) was “more significant inhibition”, the “progeny virus yield, post-treatment” value (H5N1 IAV [11]) was “more significant inhibition” and the “inhibition on IAV infections (positive control)” value (H5N1 IAV [12]) was “significant inhibition”.

`NC(=O)c1ncn([C@@H]2O[C@H](CO)[C@@H](O)[C@H]2O)n1` [ribavirin, Ribavirin hydrochloride, reference compound] was tested, and the “inhibition of viral replication, compound added after 4 hpi” value (H5N1 IAV [13]) was “no inhibition” and the “progeny virus yield, post-treatment” value (H5N1 IAV [11]) was “inhibition only in the post-treatment mode”.
